Experimental data as given in patent US20150181873A1, “HERBICIDE-RESISTANT SUNFLOWER PLANTS, POLYNUCLEOTIDES ENCODING HERBICIDE=RESISTANT ACETO HYDROXY ACID SYNTHASE LARGE SUBUNIT PROTEINS, AND METHODS OF USE” (NIDERA S.A., priority 2013, published 2015).

Assays:
[1] = tested on: Clearfield sunflower variety A; assay: Greenhouse spray injury rating, Clearfield variety A; type: in vivo, Helianthus annuus; details: imazapyr 240 gm ai/ha, scale 0-9
Description: Sunflower lines S4897, Clearfield® sunflower varieties A, B, C and a conventional non-Clearfield variety were sprayed with three rates of imazamox (Raptor™), 100, 200 and 300 gm ai/ha plus 0.5% Sun It II and two rates of imazapyr (Arsenal™) 160 and 360 gm ai/ha plus 0.5% Sun It II when the plants were at the two to three leaf stage. Ratings were taken at 14 days after application (DAT) for injury. Injury was rated on a scale from 0 to 9 where 0=no injury to 9=dead plant. Twelve plants were sprayed per herbicide/rate treatment. Statistical analysis was conducted with STATGRAPHICS Plus 5.0 by using ANOVA and LSD procedures.
After plants were sprayed, it was realized that a height difference between S4897 and other sunflower varieties would have impacted the actual herbicide dose that was delivered. The spray boom height had been calibrated against S4897 and since the other varieties were taller and closer to the boom they would have received a greater dose of herbicide. Rates were recalibrated for the other varieties to determine the approximate dose they would have received. Assessments were made as presented in Table 2 since it was not possible to make a direct rate comparison due to the effect of the height. For example injury scores were compare for S4897 treated imazamox rate 100 gm ai/ha to the other varieties treated at 75 gm ai/ha. The treatment dose of 300 gm ai/ha for line S4897 was equivalent to the treatment of 200 gm ai/ha for the other varieties, which […].

[2] = tested on: sunflower restorer line TH10 (A205V); assay: Greenhouse imazapir dose response, TH10; type: in vivo, Helianthus annuus; details: 14 DAT
Method: A greenhouse study was conducted to quantify and contrast the imazapir sensivity of the mutants A122T and A205V in different genetic backgrounds at the whole plant level in sunflower. Seeds of the different sunflower lines that were used in this study were obtained under field conditions.
Seeds were sown in Petri dishes and, after germination, plantlets were transplanted to pots of 10 cm of diameter in a potting media consisting of equal parts of vermiculite, soil and sand. Plants were grown in a greenhouse under natural light conditions supplemented with 400 W sodium halide lamps to provide a 16 hrs daylength. Day/night temperatures were 25 and 20° C., respectively. At the V2 stage 10 plants of each genotype were randomly assigned to each treatment consisting of […] imazapir doses (0, 40, 80, 160, 240, 320, 400 and 480 g ai/ha), and a zero-time biomass determination. Experiment was arranged as a randomized block design with a full factorial (sunflower line×treatment) arrangement of treatments and 10 replications.
On the day of herbicide application ten plants of each genotype were cut at the cotyledonal node and dried at 60° C. for 48 hrs zero-time for dried weight determination. […] Height was determined as the distance between the cotyledonal node and the apex of each plant. For root biomass determination, each plant was taken from the pot and the potting media was washed out from the roots. Above ground biomass data from each line were converted to biomass accumulation after application by subtracting the appropriate average zero-time biomass from each sample. Dry biomass data were converted to percentages of the untreated control plants within each line to allow direct comparisons between groups.

CC(C)C1(C)N=C(c2ncccc2C(=O)O)NC1=O (centres unmarked) [Imazapyr, imazapyr]
Injury at 14 DAT [1]: 5.0 c | Phytotoxicity Index ([2]; 0.5x (40 g ai/ha)): 0 | biomass accumulation, % of untreated ([2]; 0.5x (40 g ai/ha)): 99.2% | plant height, % of untreated ([2]; 0.5x (40 g ai/ha)): 99.2% | root dry weight, % of untreated ([2]; 0.5x (40 g ai/ha)): 90.3% | Phytotoxicity Index ([2]; 1x (80 g ai/ha)): 0 | biomass accumulation, % of untreated ([2]; 1x (80 g ai/ha)): 85.0% | plant height, % of untreated ([2]; 1x (80 g ai/ha)): 98.1% | root dry weight, % of untreated ([2]; 1x (80 g ai/ha)): 69.9% | Phytotoxicity Index ([2]; 2x (160 g ai/ha)): 3.1 | biomass accumulation, % of untreated ([2]; 2x (160 g ai/ha)): 58.1% | plant height, % of untreated ([2]; 2x (160 g ai/ha)): 63.6% | root dry weight, % of untreated ([2]; 2x (160 g ai/ha)): 41.3% | Phytotoxicity Index ([2]; 3x (240 g ai/ha)): 3.9 | biomass accumulation, % of untreated ([2]; 3x (240 g ai/ha)): 48.1% | plant height, % of untreated ([2]; 3x (240 g ai/ha)): 51.9% | root dry weight, % of untreated ([2]; 3x (240 g ai/ha)): 42.8% | Phytotoxicity Index ([2]; 4x (320 g ai/ha)): 5.9 | biomass accumulation, % of untreated ([2]; 4x (320 g ai/ha)): 28.8% | plant height, % of untreated ([2]; 4x (320 g ai/ha)): 27.5% | root dry weight, % of untreated ([2]; 4x (320 g ai/ha)): 22.3% | Phytotoxicity Index ([2]; 5x (400 g ai/ha)): 6.9 | biomass accumulation, % of untreated ([2]; 5x (400 g ai/ha)): 27.4% | plant height, % of untreated ([2]; 5x (400 g ai/ha)): 26.0% | root dry weight, % of untreated ([2]; 5x (400 g ai/ha)): 22.7% | Phytotoxicity Index ([2]; 6x (480 g ai/ha)): 6.7 | biomass accumulation, % of untreated ([2]; 6x (480 g ai/ha)): 24.9% | plant height, % of untreated ([2]; 6x (480 g ai/ha)): 29.3% | root dry weight, % of untreated ([2]; 6x (480 g ai/ha)): 16.4%
